Laboratory results: US6727237B2, “Inhibitors of bacterial NAD synthetase” (priority 1998, dated 2004)
Converted amounts (≈) assume the structure as drawn. “And” between values parts separate entries of the source, which are not always exact repeats. Equal values may be shown once. Read-outs that look alike come from different tables or passages of the source.

What was measured:
[1] = target: T1, bacterial NAD synthetase enzyme (Bacillus subtilis, UniProt P08164); test: biochemical; format: biochemical
T1 sequence (P08164 2-272 limits assumed): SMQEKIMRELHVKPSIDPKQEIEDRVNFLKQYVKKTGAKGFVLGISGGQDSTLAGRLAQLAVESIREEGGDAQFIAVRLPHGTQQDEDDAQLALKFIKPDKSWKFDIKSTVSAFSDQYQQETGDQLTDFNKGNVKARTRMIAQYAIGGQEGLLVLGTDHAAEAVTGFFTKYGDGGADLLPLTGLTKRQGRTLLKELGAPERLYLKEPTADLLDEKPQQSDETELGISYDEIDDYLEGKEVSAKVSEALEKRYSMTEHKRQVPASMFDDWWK

[2] = system: Staphylococcus epidermitis; test: Dose response of bacterial growth inhibition, MIC85; details: for MIC: Staphylococcus, read-out: MIC85; for MIC85: minimum inhibitory concentration to achieve 85% inhibition, S. epidermitis
[3] = system: Staphylococcus epidermitis; test: Bacterial growth inhibition screen in LB media (absorbance 595 nm), percent inhibition; details: for inhibition of growth at 100 µM / inhibition of growth at 10 µM: Staphylococcus, read-out: % Inhibition, S. epidermitis; for % Inhibition: S. epidermitis
[4] = lead compounds (Table 318A), read-out: IC 50
[5] = compound at 0.2 mM (Table 312A)

| Structure (SMILES) | IC50 [1] [µM] | MIC [2] [µM] | MIC85 [2] [µM] | % Inhibition ([3]; concentration screened 10 uM) | other results |
| --- | --- | --- | --- | --- | --- |
| COC(=O)c1cc2cc(OCc3ccccc3)ccc2n1CCCCCCC[n+]1ccccc1 [Compound 229] | 25 | 3 |  |  | inhibition at 100 µM [1]: 99.3%; inhibition of growth at 100 µM ([3]; concentration screened 100 uM): 98% |
| COc1ccc2c(ccn2CCCCCCCOC(=O)Cc2ccc([N+](C)(C)C)cc2)c1 [Compound 743] |  |  | 10 | 97.67% | % Inhibition ([1]; compound at 0.1 mM (Table 314)): 94.10% |
| C[N+](C)(C)c1ccc(CC(=O)OCCCCCCCn2ccc3cc(OCc4ccccc4)ccc32)cc1 [Compound 748] |  | 10 |  |  | inhibition at 100 µM [1]: 98.4%; IC50 [1, 4]: 30 µM; inhibition of growth at 100 µM ([3]; concentration screened 100 uM): 98.4% |
| C[N+](C)(C)c1ccc(CC(=O)OCCCCCCn2ccc3cc(OCc4ccccc4)ccc32)cc1 [Compound 747] | 70 | 10 |  |  | inhibition at 100 µM [1]: 97.8%; inhibition of growth at 10 µM ([3]; concentration screened 10 uM): 97.9% |
| CN(C)c1ccc(CC(=O)OCCCCCCCCCn2ccc3cc([N+](=O)[O-])ccc32)cc1 [Compound 853] |  |  | 30 (≈ 14 µg/mL) | 98.58% | % Inhibition ([1]; compound at 0.1 mM (Table 314)): 73.46%; IC50 [1, 4]: 45 µM |
| FC(F)(F)c1ccc2[nH]c(CCCCC[n+]3ccccc3)cc2c1 [Compound 362] |  |  | 30 |  | % Inhibition ([1]; compound at 0.1 mM (Table 314)): 8.31%; % Inhibition ([3]; concentration screened 100 uM): 100.00% |
| COC(=O)c1cc2ccccc2n1CCCCCCCCC[n+]1ccccc1 [Compound 182] | 60 | 10 |  |  | inhibition at 100 µM [1]: 95.4%; inhibition of growth at 100 µM ([3]; concentration screened 100 uM): 97.7% |
| Cc1ccc2[nH]c(CCCCC[n+]3ccc4ccccc4c3)cc2c1 [Compound 512] |  |  | 30 |  | % Inhibition [1, 5]: 17.50%; % Inhibition ([3]; concentration screened 100 uM): 99.71% |
| C[N+](C)(C)c1ccc(CC(=O)OCCCCn2ccc3cc(OCc4ccccc4)ccc32)cc1 [Compound 745] | 85 | 30 |  |  | inhibition at 200 µM [1]: 85.4%; inhibition of growth at 10 µM ([3]; concentration screened 10 uM): 95.1% |
| COC(=O)c1ccc2ccn(CCCCCCC[n+]3ccccc3)c2c1 [Compound 213] | 65 | 10 |  |  | inhibition at 200 µM [1]: 90.7%; inhibition of growth at 10 µM ([3]; concentration screened 10 uM): 97.4% |
| CCCCc1ccc2[nH]c(CCCCCC[n+]3ccccc3)cc2c1 [Compound 315] | 100 | 30 |  |  | inhibition at 100 µM [1]: 77.2%; inhibition of growth at 100 µM ([3]; concentration screened 100 uM): 100% |
| C[n+]1cccc(C(=O)OCCCCCCn2ccc3cc(OCc4ccccc4)ccc32)c1 [Compound 767] | 60 | 10 |  |  | inhibition at 100 µM [1]: 96%; inhibition of growth at 100 µM ([3]; concentration screened 100 uM): 91.8% |
| c1ccc(C(c2ccccc2)(c2ccccc2)c2ccc3[nH]c(CCC[n+]4ccc5ccccc5c4)cc3c2)cc1 [Compound 552] |  |  | 30 | 50.00% | % Inhibition ([1]; compound at 0.1 mM (Table 314)): 15.24% |
| FC(F)(F)c1ccc2cc(CCC[n+]3ccccc3)[nH]c2c1 [Compound 288] |  |  | 30 | 99.65% | % Inhibition ([1]; compound at 0.1 mM (Table 314)): 42.38% |
| C[n+]1cccc(C(=O)OCCCCCn2ccc3cc(OCc4ccccc4)ccc32)c1 [Compound 766] | 65 | 30 |  |  | inhibition at 100 µM [1]: 91.2%; inhibition of growth at 10 µM ([3]; concentration screened 10 uM): 90.5% |
| C[n+]1cccc(C(=O)OCCCCCCCn2ccc3cc(OCc4ccccc4)ccc32)c1 [Compound 768] | 30 | 10 |  |  | inhibition at 100 µM [1]: 98.6%; inhibition of growth at 100 µM ([3]; concentration screened 100 uM): 96.1% |
| COC(=O)c1ccc2c(ccn2CCCCCCCCC[n+]2cc(C(=O)OC)cc3ccccc32)c1 [Compound 174] | 40 | 10 |  |  | inhibition of growth at 10 µM ([3]; concentration screened 10 uM): 98.7% |
| COC(=O)c1ccc[n+](CCCCCCCCCn2c(C(=O)OC)cc3ccccc32)c1 [Compound 190] | 50 | 3 |  |  | inhibition of growth at 100 µM ([3]; concentration screened 100 uM): 97.7% |
| COC(=O)c1ccc2ccn(CCCCCCCCC[n+]3cccc(C(=O)OC)c3)c2c1 [Compound 222] |  |  | 30 | 98.50% | % Inhibition [1, 5]: 52.98% |
| COc1ccc2[nH]c(CCCCC[n+]3ccccc3)cc2c1 [Compound 374] |  |  | 30 |  | % Inhibition ([1]; compound at 0.1 mM (Table 314)): 31.84%; % Inhibition ([3]; concentration screened 100 uM): 100.00% |
| C[N+](C)(C)c1ccc(CC(=O)OCCCCCn2ccc3cc(OCc4ccccc4)ccc32)cc1 [Compound 746] | 50 | 10 |  |  | inhibition at 100 µM [1]: 91.3%; inhibition of growth at 10 µM ([3]; concentration screened 10 uM): 96.8% |
| O=C(OCCCCCn1ccc2cc([N+](=O)[O-])ccc21)c1cnc2ccccc2c1 [Compound 831] |  |  | 30 (≈ 12.1 µg/mL) | 84.68% | % Inhibition ([1]; compound at 0.1 mM (Table 314)): 26.21% |
| COC(=O)c1cc2cc(OC)ccc2n1CCCCCCCCC[n+]1ccccc1 [Compound 246] |  |  | 30 | 90.26% | % Inhibition [1, 5]: 92.19% |
| C[N+](C)(C)c1cccc(C(=O)OCCCCCCCn2ccc3cc(OCc4ccccc4)ccc32)c1 [Compound 808] |  |  | 30 | 98.06% |  |

| Structure (SMILES) | IC50 [1] [µM] | MIC [2] [µM] | MIC85 [2] [µM] | % Inhibition ([3]; concentration screened 10 uM) | other results |
| --- | --- | --- | --- | --- | --- |
| FC(F)(F)c1ccc2cc(CCCCCC[n+]3ccccc3)[nH]c2c1 [Compound 291] |  |  | 30 |  | % Inhibition [1, 5]: 71.94%; % Inhibition ([3]; concentration screened 100 uM): 100.00% |
| FC(F)(F)c1ccc2[nH]c(CCCCCC[n+]3ccccc3)cc2c1 [Compound 363] |  |  | 30 |  | % Inhibition [1, 5]: 75.01%; % Inhibition ([3]; concentration screened 100 uM): 100.00% |
| CN(C)c1cccc(C(=O)OCCCCCCCCn2ccc3cc([N+](=O)[O-])ccc32)c1 [Compound 840] |  |  | 10 (≈ 4.38 µg/mL) | 98.77% |  |
| O=C(OCCCCCCCCCn1ccc2cc([N+](=O)[O-])ccc21)c1cnc2ccccc2c1 [Compound 835] |  |  | 3.7 (≈ 1.7 µg/mL) | 99.03% |  |
| COC(=O)c1cc2cc(OCc3ccccc3)ccc2n1CCCCC[n+]1ccccc1 [Compound 228] | 60 | 10 |  |  | inhibition at 100 µM [1]: 95.1%; inhibition of growth at 100 µM ([3]; concentration screened 100 uM): 96.8% |
| COc1ccc2c(ccn2CCCCCCCCOC(=O)c2cc3ccccc3[n+](C)c2)c1 [Compound 824] |  |  | 3.7 | 97.67% |  |
| c1ccc(C(c2ccccc2)(c2ccccc2)c2ccc3[nH]c(CCCC[n+]4ccc5ccccc5c4)cc3c2)cc1 [Compound 553] |  |  | 10 | 94.92% | % Inhibition ([1]; compound at 0.1 mM (Table 314)): 49.49% |
| COc1ccc2c(ccn2CCCCCCCCOC(=O)Cc2ccc([N+](C)(C)C)cc2)c1 [Compound 744] |  |  | 30 | 97.74% | % Inhibition [1, 5]: 95.85% |
| Cc1ccc2[nH]c(CCCCCC[n+]3ccccc3)cc2c1 [Compound 297] |  |  | 30 |  | % Inhibition ([1]; compound at 0.1 mM (Table 314)): 50.83%; % Inhibition ([3]; concentration screened 100 uM): 100.00% |
| O=C(OCCCCCCCn1ccc2cc([N+](=O)[O-])ccc21)c1cnc2ccccc2c1 [Compound 833] |  |  | 10 (≈ 4.31 µg/mL) | 98.00% |  |
| COc1ccc2[nH]c(CCCCCC[n+]3ccccc3)cc2c1 [Compound 375] |  |  | 30 |  | % Inhibition ([1]; compound at 0.1 mM (Table 314)): 60.14%; % Inhibition ([3]; concentration screened 100 uM): 100.00% |
| c1ccc2c[n+](CCCCCc3cc4ccccc4[nH]3)ccc2c1 [Compound 500] |  |  | 30 |  | % Inhibition ([1]; compound at 0.1 mM (Table 314)): 18.25%; % Inhibition ([3]; concentration screened 100 uM): 99.14% |
| COC(=O)c1ccc[n+](CCCCCCCCn2ccc3cc([N+](=O)[O-])ccc32)c1 [Compound 13] | 50 | 30 |  |  | inhibition at 200 µM [1]: 80.8%; inhibition of growth at 10 µM ([3]; concentration screened 10 uM): 98.5% |
| COC(=O)c1ccc[n+](CCCCCCCn2ccc3cc([N+](=O)[O-])ccc32)c1 [Compound 12] |  |  | 30 | 99.22% and 95.73% | % Inhibition ([1]; compound at 0.1 mM (Table 314)): 62.22% |
| Cc1ccc2[nH]c(CCCC[n+]3ccccc3)cc2c1 [Compound 295] |  |  | 10 | 94.48% | % Inhibition ([1]; compound at 0.1 mM (Table 314)): 25.05% |
| Cc1ccc2[nH]c(CCCCC[n+]3ccccc3)cc2c1 [Compound 296] |  |  | 30 | 87.47% | % Inhibition [1, 5]: 16.79% |
| COC(=O)c1cc2cc(OCc3ccccc3)ccc2n1CCC[n+]1ccccc1 [Compound 227] |  |  | 30 | 96.46% | % Inhibition [1, 5]: 91.19% |
| CN(C)c1ccc(CC(=O)OCCCCCCCCn2ccc3cc([N+](=O)[O-])ccc32)cc1 [Compound 852] |  |  | 30 (≈ 13.5 µg/mL) | 98.58% |  |
| C[n+]1cc(C(=O)OCCCCCCn2ccc3cc([N+](=O)[O-])ccc32)cc2ccccc21 [Compound 832] | 90 | 30 |  |  | inhibition at 100 µM [1]: 78.6%; inhibition of growth at 10 µM ([3]; concentration screened 10 uM): 94.7% |
| COC(=O)c1ccc[n+](CCCCCCCCCn2ccc3cc([N+](=O)[O-])ccc32)c1 [Compound 14] |  |  | 10 | 98.58% and 96.19% | % Inhibition [1, 5]: 78.85% |
| Fc1cc(F)c2[nH]c(CCCCC[n+]3ccc4ccccc4c3)cc2c1 [Compound 518] |  |  | 30 |  | % Inhibition ([1]; compound at 0.1 mM (Table 314)): 30.39%; % Inhibition ([3]; concentration screened 100 uM): 100.00% |
| CN(C)c1cccc(C(=O)OCCCCCCCn2ccc3cc([N+](=O)[O-])ccc32)c1 [Compound 839] |  |  | 30 (≈ 12.7 µg/mL) | 99.35% |  |
| COC(=O)c1ccc2ccn(CCCCCCCCC[n+]3ccccc3)c2c1 [Compound 214] | 30 | 10 |  |  | inhibition at 100 µM [1]: 82.8%; inhibition of growth at 100 µM ([3]; concentration screened 100 uM): 98.1% |
